Measurements published in patent US20230173089A1, “Q-ER PEPTIDE” (Biotempt B.V., priority 2019, published 2023).
Where two headings read alike, the source gives them in different places.

Key:
[1] = tested on: colonic inflammation induced by dextran sulfate sodium (DSS); settings: Gln supplementation; cited from earlier work
mTOR = settings: cited from earlier work
[2] = tested on: allogenic kidney transplantation recipients; settings: 50 mg/kg twice daily i.p.; cited from earlier work
[3] = tested on: healthy volunteers given E. coli endotoxin; settings: cited from earlier work
[4] = tested on: high-dose lipopolysaccharide induced inflammation; settings: previous study; cited from earlier work
[5] = tested on: male C57B1/6N mice with renal ischemia/reperfusion injury; settings: cited from earlier work
[6] = tested on: non-obese diabetic (NOD) mouse; assay: type 1 diabetes development in NOD mice; assay type: in vivo; settings: 250 µg i.p. three times per week, female NOD mice from 14 weeks, max five weeks
Source text: The non-obese diabetic (NOD) mouse spontaneously develops type 1 diabetes (T1D) and has served as a model for understanding the genetic and immunological basis, and treatment, of T1D. NOD mice are used in these studies. Most diabetic NOD mice suffer from insulin deficiency diabetes, with the underlying cause of the pancreatic beta-cell loss or destruction most likely a result of an inflammatory process in the micro-vasculature surrounding endocrine beta-cell tissues and genetically accelerated autoimmunity is suspected. Diabetes is assessed by measurement of the venous blood glucose level using an Abbott Medisense Precision glucometer. Mice are considered diabetic after two consecutive glucose measurements ≥11 mmol/l (200 mg/dl). Onset of diabetes is dated from the first consecutive reading of ≥11 mmol/l. In vivo treatment: groups of 14 weeks-old female NOD mice (n=12 per group) are treated with synthetic peptide SEQ ID NO:5 (AQGVAPG), SEQ ID NO:6 (LQGVAPG), SEQ ID NO:7 (AQGVLPG), SEQ ID NO:8 (LQGVLPG) or vehicle (PBS), respectively. Treatment is done by injecting 250 µg peptide diluted in PBS three times per week intraperitoneally (i.p.). Control mice are treated with PBS only. The treatment is discontinued when all PBS treated NOD mice in the experiment have developed diabetes. This is generally at the age of 19 weeks. The peptide and PBS treatments are done for a maximum of five weeks. In instances of hyperglycaemia of ≥20 mmol/l the mice are killed to avoid prolonged discomfort. The remainder mice are kept alive up to the age of 35 weeks without any further treatment.

[7] = tested on: Wistar rats with hemorrhagic shock; assay: hemorrhagic shock and resuscitation in rats (Example 15, SIRS); assay type: in vivo, rat; settings: single injection 30 minutes after induction of hemorrhagic shock
Protocol: Severe hemorrhagic shock followed by resuscitation induces a massive inflammatory response, which may culminate into systemic inflammatory response syndrome, multiple organ dysfunction syndrome and finally death. Treatments that effectively prevent this inflammation are limited so far. […] Considering this powerful anti-inflammatory effect, it was investigated whether administration of 0.5 ml i.p. of synthetic heptapeptide SEQ ID NO:5 (AQGVAPG), SEQ ID NO:6 (LQGVAPG), SEQ ID NO:7 (AQGVLPG), SEQ ID NO:8 (LQGVLPG), dissolved in 0.9% NaCl at a concentration of 25 mg/ml, or vehicle (0.9% NaCl), respectively, during the SIRS-phase of hemorrhagic shock, is able to attenuate the inflammatory response associated with this condition.
Hemorrhagic shock is induced in groups of 6 rats for 60 minutes by blood withdrawal until a mean arterial pressure of 40 mmHg is reached. Thirty minutes after induction of hemorrhagic shock, rats received a single injection with one of synthetic heptapeptide SEQ ID NO:5 (AQGVAPG), SEQ ID NO:6 (LQGVAPG), SEQ ID NO:7 (AQGVLPG), SEQ ID NO:8 (LQGVLPG), or 0.9% NaCl solution, as control. Treatment with synthetic heptapeptide SEQ ID NO:5 (AQGVAPG), SEQ ID NO:6 (LQGVAPG), SEQ ID NO:7 (AQGVLPG), SEQ ID NO:8 (LQGVLPG) prevents systemic release of TNF-α and IL-6 and is associated with reduced TNF-α, IL-6 and E-selectin mRNA transcript levels in the liver, with reduced neutrophil infiltration into the liver and is associated with reduced liver damage.
Animals. Adult male specific pathogen-free Wistar rats weighing 350-400 g are used. Rats are housed under barrier conditions at 25° C. with a twelve-hour light/dark cycle, and are allowed food and water ad libitum. The experimental protocol adheres to the rules laid down in national law that serves the implementation of “Guidelines on the protection of experimental animals” by the Council of Europe (1986), Directive 86/609/EC. hCG-related synthetic oligopeptides. Rats are food deprived overnight before the start of the experiment, but are allowed water ad libitum. Rats are anesthetized using a mixture of N2 O/O2 /isoflurane (Pharmachemie B.V., Haarlem, The Netherlands). Body temperature is continuously maintained at 37.5° C. by placing the rats on a thermo controlled “half-pipe” (UNO, Rotterdam, The Netherlands). Endotracheal intubation is performed, and rats are ventilated at 60 breaths per minute with a mixture of N2 O/O2 /isoflurane. Polyethylene tubes (PE-50, Becton Dickinson; St. Michielsgestel, The Netherlands) are flushed with heparin and placed via the right carotid artery in the aorta and in the right internal jugular vein. A 5 cm midline laparotomy is performed and a supra pubic catheter is inserted to monitor urine production. Hemorrhagic shock is induced by blood withdrawal, reducing the circulating blood volume until a mean arterial pressure (MAP) of 40 mmHg is reached. This level of hypotension is maintained for 60 minutes. Thirty minutes after the induction of hemorrhagic shock, rats received a single intravenous (IV) bolus injection of heptapeptide solution or vehicle. Sixty minutes after induction of hemorrhagic shock, rats are resuscitated by four times their shed blood volume over a period of 30 minutes to normalize the MAP, and monitored for another 120 minutes after which they are sacrificed. The rats receive no heparin before or during the experiment. Sham animals are subjected to the same surgical procedure as the hemorrhagic shock animals, but without blood withdrawal and administration of heptapeptide.

[8] = tested on: murine polymicrobial sepsis model; settings: cited from earlier work
[9] = tested on: Streptozotocin-induced diabetic rats; assay: renal function and urinary protein leakage in streptozotocin-induced diabetic rats; assay type: in vivo, rat; settings: 140 minutes i.v. infusion, 5 nmol x min(-1) x kg(-1) body wt
Protocol: Acute effects of 140 minutes i.v. infusion of heptapeptide with SEQ ID NO:8 (LQGVLPG; 5 nmol x min(-1) x kg(-1) body wt) on renal function and urinary protein leakage are studied in anesthetized diabetic male rats two weeks after streptozotocin injection without insulin treatment. Streptozotocin-induced diabetic rats are studied with (N = 12) and without heptapeptide (N = 11) treatment. The two groups show a similarly elevated blood glucose concentration during the study. Age-matched normal rats serve as controls (N = 5). Glomerular filtration rate (GFR) is measured by inulin clearance in the basal state and during a 60-minute glycine infusion (0.22 mmol x min(-1) x kg(-1) body wt)-resembling a protein load challenge-to test the renal functional reserve in all three groups.
In the basal state, the non-heptapeptide-treated diabetic rats display increased GFR and increased total protein leakage when compared with normal rats. Whereas normal rats respond to glycine infusion with an increase in GFR, no increase occurs in diabetic rats not treated with heptapeptide. In diabetic rats given heptapeptide, this reduces the initial glomerular hyperfiltration prior to glycine infusion. […] Thus, short-term infusion of heptapeptide has beneficial effects on protein leakage and hyperfiltration and improves the renal functional reserve in rats.

In the case of `NC(=O)CC[C@H](N)C(=O)O` [L-Glutamine], the “degree of microscopic injury induced by dextran sulfate sodium (DSS)” value [1] is listed as “attenuated”, the “activity as activators of mTOR or inhibitors of autophagy compared with other amino acids” value (mTOR; alone or in combination) is listed as “more potent” and the “mTOR associated autophagic inhibitory effects on human cells” value (mTOR; human cells) is listed as “most prominent”.
For “AQGV (Immunomodulatory peptide) [SEQ ID NO:2, synthetic linear glutamine-containing tetrapeptide derived from beta-human chorionic gonadotropin]”, the “renal function and allograft survival” value [2] is given as “improved”, the “endotoxin induced increase in plasma levels of IL-6, IL-8, IL-1RA, MCP-1, MIP-1α, MIP-1β and VCAM-1” value ([3]; 180 mg/kg (highest dose)) is given as “significant attenuation” and the “fever and flu-like symptoms” value ([3]; highest dose (180 mg/kg)) is given as “reduced”. The “endotoxin induced increase in plasma levels of IL-6, IL-8, IL-1RA, MCP-1, MIP-1α, MIP-1β and VCAM-1” value ([3]; lower doses (30, 90 mg/kg)) was “not with the lower doses tested”, the “inflammatory response and mortality following high-dose lipopolysaccharide” value [4] was “inhibit” and the “survival after IRI” value ([5]; 20-50 mg/kg twice daily i.p. for four days, started 24 hours after IRI) was “markedly improved”. The “CTGF up-regulation (marker of post-ischemic fibrosis) in renal tissue” value ([5]; four weeks after IRI) was “significantly less”, the “tubular epithelial cell proliferation” value ([5]; mouse, in vivo) was “significantly enhanced” and the acute tubular injury ([5]; two days after IRI) was “diminished”.
With “AQGVLPG (Immunomodulatory peptide) [SEQ ID NO:7]” the “beta-cell failure with diabetes development (occurrence of diabetes after the age of 17 weeks)” value (from here on “beta-cell failure”) [6] was “significantly reduces”, the “TNF-α, IL-6 and E-selectin mRNA transcript levels in the liver” value [7] was “reduced” and the liver damage [7] was “reduced”. For the same molecule, the “neutrophil infiltration into the liver” value [7] was “reduced” and the “systemic release of TNF-α and IL-6” value [7] was “prevents”.
For “LQGV (Immunomodulatory peptide) [SEQ ID NO:1, synthetic linear glutamine-containing tetrapeptide derived from beta-human chorionic gonadotropin]”, the “survival during the first 5 days after moderate cecal ligation and puncture” value ([8]; 5 mg/kg bodyweight, control 20%) is listed as 50%, the “survival in severe cecal ligation and puncture model” value ([8]; 5 mg/kg combined with fluid resuscitation and antibiotics, fluid resuscitation and antibiotics alone 30%) is listed as 70% and the “cytokine and E-selectin levels in peritoneal lavage fluid, lungs and plasma” value ([8]; moderate cecal ligation and puncture, 5 mg/kg) is listed as “reduced”. For the same molecule, the “pulmonary nuclear factor-κB activation and pulmonary damage” value ([8]; mouse, in vivo) was “reduced” and the “inflammatory response and mortality following high-dose lipopolysaccharide” value [4] was “inhibit”.
With “LQGVAPG (Immunomodulatory peptide) [SEQ ID NO:6]” the “beta-cell failure” value [6] was “significantly reduces”, the “TNF-α, IL-6 and E-selectin mRNA transcript levels in the liver” value [7] was “reduced” and the liver damage [7] was “reduced”. For the same molecule, the “neutrophil infiltration into the liver” value [7] was “reduced” and the “systemic release of TNF-α and IL-6” value [7] was “prevents”.
In the case of “LQGVLPG (Immunomodulatory peptide) [SEQ ID NO:8]”, the “initial glomerular hyperfiltration (GFR) prior to glycine infusion” value [9] is reported as “reduces”, the “renal functional reserve (GFR response to glycine infusion)” value [9] is reported as “restores normal” and the “total protein leakage compared with rats not given heptapeptide” value [9] is reported as “lower”. The “beta-cell failure” value [6] was “significantly reduces”, the “TNF-α, IL-6 and E-selectin mRNA transcript levels in the liver” value [7] was “reduced” and the liver damage [7] was “reduced”. The “neutrophil infiltration into the liver” value [7] was “reduced” and the “systemic release of TNF-α and IL-6” value [7] was “prevents”.
